Results published in US8822645B2, “Prostaglandin E2 dual variable domain immunoglobulins and uses thereof” (AbbVie Inc., priority 2008, dated 2014).

Assays:
[1] = system: C57.BL/6 mice, carrageenan-induced footpad edema; test: Carrageenan-induced footpad edema model; format: in vivo, mouse; conditions: 3 mg/kg, p.o.
Method: Carrageenan-Induced Footpad Edema is an acute rodent model of innate immune function. Intradermal (ID) injection of an inflammatory agent causes a rapid influx of neutrophils and fluid edema, which peaks at approximately 4 hours, followed by an influx of macrophages and monocytes, which peaks at approximately 48 hours. C57.BL/6 mice (8-10-week-old, Jackson Laboratories, Bar Harbor, Me.) were injected ID in the rear footpad with 30 μL of either PBS (left) or λ-carrageenen (Sigma Aldrich, St. Louis, Mo.) in PBS (right) at a concentration of 5.0 mg/mL (150 μg/mouse). […] Significant difference for paw thickness was determined by comparing mean paw swelling for each treatment group to vehicle in a Student's two-tailed t-test.
The endpoint measured was the difference in paw swelling (edema) between right and left paws 4 hours after treatment.

human TNFα [2] = target: T1, human TNFα (Homo sapiens, UniProt P01375); test: L929 assay (TNFα induced death of L929 cells); format: cell-based, mouse; conditions: read-out: TNFα Cellular Potency IC50
T1 sequence (P01375 77-233 limits assumed): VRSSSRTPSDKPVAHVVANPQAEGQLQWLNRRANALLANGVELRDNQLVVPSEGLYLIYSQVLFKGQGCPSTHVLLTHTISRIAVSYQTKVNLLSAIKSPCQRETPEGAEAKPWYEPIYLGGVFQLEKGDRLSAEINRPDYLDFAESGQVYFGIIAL

human TNFα [3] = target: T1, human TNFα; test: BIAcore assay, TNFα binding kinetics and affinity
Method: The BIACORE assay (BIAcore, Inc, Piscataway, N.J.) determines the affinity of antibodies or DVD-Ig with kinetic measurements of on-rate and off-rate constants. Binding of antibodies or DVD-Ig to a target antigen (for example, a purified recombinant target antigen) is determined by surface plasmon resonance-based measurements with a BIAcore® 3000 instrument (BIAcore® AB, Uppsala, Sweden) using running HBS-EP (10 mM HEPES [pH 7.4], 150 mM NaCl, 3 mM EDTA, and 0.005% surfactant P20) at 25° C. All chemicals are obtained from BIAcore® AB (Uppsala, Sweden) or otherwise from a different source as described in the text. […] The association and dissociation rate constants, kon (M^−1 s^−1) and koff (s^−1) are determined under a continuous flow rate of 25 μl/min. […] The equilibrium dissociation constant (M) of the reaction between antibodies or DVD-Igs and the target antigen is then calculated from the kinetic rate constants by the following formula: KD=koff/kon. Binding is recorded as a function of time and kinetic rate constants are calculated. In this assay, on-rates as fast as 10^6M^−1 s^−1 and off-rates as slow as 10^−6 s^−1 can be measured. […]

Dynamic light scattering = format: physicochemical; conditions: 2 mg/mL in PBS
Method: Samples were centrifuged at 10,000 RPM for 10 minutes before measured on DynaPro-801 Dynamic light scattering system.

[4] = system: human TNFα transgenic B6.Cg(SJL)-Tg(TNF) N21+ mice; test: Human TNFα transgenic induced arthritis model; format: in vivo, mouse; conditions: 30 mg/kg
Method: Human TNFα transgenic B6.Cg(SJL)-Tg(TNF) N21+ mice (40 male and 40 females) (Taconic, Hudson, N.Y.) at 4 weeks age were divided into 10 groups of 8 mice (4 male and 4 females/group). Each week, starting from week 5 until week 12 of age the morphology of the rear ankle joints of the mice were evaluated and scored for signs and symptoms of arthritis. Arthritic scores were assigned as follows. • 0=no arthritis (normal appearance and flexion) • 1=mild arthritis (joint distortion) • 2=moderate arthritis (swelling, joint deformation); and • 3=severe arthritis (ankylosis detected on flexion and severely impaired movement)
Animals were randomized to achieve approximately similar mean arthritic score (MAS) for all groups at week 9 at first signs of symptoms. Animals were then treated i.p. twice a week starting from week 10 of age until week 12 of age. Mice in group 1 served as untreated control were administered PBS.

| Molecule | % Inhibition [1] | Δ Paw Swelling ([1]; 4 hours post carrageenan) | IC50 (human TNFα [2]) | Kd (human TNFα [3]) | hydrodynamic radius (Dynamic light scattering) | maximal efficacy (inhibition of AUC of the mean arthritis score) [4] |
| --- | --- | --- | --- | --- | --- | --- |
| COc1ccc2c(c1)c(CC(=O)O)c(C)n2C(=O)c1ccc(Cl)cc1 [Indomethacin, reference compound] | 57 ± 3.5% | 0.486 ± 0.03 mm | – | – | – | – |
| D2E7: human anti-TNFα monoclonal antibody, parent of the DVD-Igs [reference compound] | – | – | 0.041 nM | 0.027 nM | 5.46 nm | 59% |
